Results: PMC6479946 (Molecules, 2019)
Several values for one entry are separate records, joined by “and”; a condition that tells them apart may be missing. Identical values can stand only once. Like-named read-outs stand apart in the source and are kept apart here.

Assays:
[1] = in vivo; conditions: for AUC(0-inf) / Tmax / AUC(0-t) / CL/F / Cmax / k el / MRT: male, Sprague-Dawley, po, 5 mg/kg; for AUC(0-inf): AUC(0-∞) of MEM; for AUC(0-inf) / Tmax / AUC(0-t) / CL/F / Cmax / k el / MRT / Ka of MEM / T1/2a of MEM / T1/2d of MEM / Vd of MEM: n = 8, mean ± SD; for Tmax: Tmax of MEM; for AUC(0-t): AUC(0-t) of MEM; for CL/F: CL/F of MEM; for Cmax: Cmax of MEM; for k el: Ke of MEM; for MRT: MRT of MEM
Method: The analytes were separated on an ACQUITY UPLC BEH C18 column (2.1 mm × 50 mm, 1.7 μm, Waters, Milford, USA). […] The flow rate was 0.3 mL/min. The column and sample-tray temperature were kept at 40 °C and 4 °C, respectively. The injection volume was 5.0 μL using a partial loop with needle over fill mode.
The compound dependent parameters used for analysis were summarized in Supplementary materials Table S1.
A rapid and convenient precipitation method was used to prepare the plasma samples. A 100 μL aliquot of plasma sample was spiked with 100 μL of IS solution and 300 μL of methanol in a 1.5 mL centrifuge tube; subsequently, the mixtures were vortex-mixed for 30.0 s and then centrifuged at 1.5 × 10^4× g for 10 min at 4 °C. A 100 μL aliquot of supernatant was combined with 25.0 μL of 0.1% formic acid water in a clean centrifuge tube and then vortex-mixed for 30 s. A 5.0 μL aliquot of mixture was injected into the UPLC-MS/MS system for analysis.
Fifty-six pathogen-free male adult rats were randomly divided into seven groups with eight rats in each group for pharmacokinetic study. […] One group was intragastrically administered with MEM hydrochloride 5.0 mg/kg dissolved in ultrapure water, namely, MEM group. […] The blood samples were immediately centrifuged at 4.0 × 10^3× g at […] for 10 min, and 100 μL of the supernatant plasma was transferred into another new 1.5 mL centrifuge tube and stored at −20 °C until UPLC-MS/MS analysis.
All standard curves and quantitative data were processed by Agilent Mass Hunter Quantitative Analysis Workstation Software. […] All the pharmacokinetic parameters were processed using the non-compartmental pharmacokinetics data analysis software program PK solutions 2.0^TM (Summit Research Services, USA). […] The AUC(0-t) was obtained by the linear/logarithmic trapezoidal rule, and the area under the plasma concentration versus time curve from zero to infinity (AUC(0-∞)) was calculated by means of the trapezoidal rule with extrapolation to infinity with a terminal elimination rate constant. The Pearson correlation coefficient analysis was processed by IBM SPSS Statistics Version 21. A statistical analysis was performed using analysis of variance with α = 0.05 as the minimal level of significance.

[2] = rats, cited from earlier work
[3] = tested on: CYP2D6; conditions: rat liver microsomes; cited from earlier work
[4] = tested on: CYP1A2; conditions: rat liver microsomes; cited from earlier work
[5] = tested on: CYP3A4; conditions: rat liver microsomes; cited from earlier work
[6] = rat, plasma, rat plasma, oral MEM 5.0 mg/kg + HAR 20.0 mg/kg (HAR-L + MEM)
[7] = rat, plasma, rat plasma, oral MEM 5.0 mg/kg + HAR 40.0 mg/kg (HAR-M + MEM)
[8] = rat, plasma, rat plasma, oral MEM 5.0 mg/kg + HAR 80.0 mg/kg (HAR-H + MEM)
[9] = rat, plasma, rat plasma, oral MEM 5.0 mg/kg alone (MEM group)
[10] = rat plasma, oral MEM 5.0 mg/kg + HAR 20.0 mg/kg (HAR-L + MEM)
[11] = rat plasma, oral MEM 5.0 mg/kg + HAR 40.0 mg/kg (HAR-M + MEM)
[12] = rat plasma, oral MEM 5.0 mg/kg + HAR 80.0 mg/kg (HAR-H + MEM)
[13] = rat plasma, oral MEM 5.0 mg/kg alone (MEM group)

Which AUC(0-inf) ([1]; rat, in vivo, rat plasma, oral MEM 5.0 mg/kg + HAR 80.0 mg/kg (HAR-H + MEM)) does the source give for `CC12CC3CC(C)(C1)CC(N)(C3)C2` [MEM, 1-amino-3,5-dimethyladamantane, reference compound] here?
Its AUC(0-inf) is 781 ± 285 ng·h/mL.

And the Tmax ([1]; rat, in vivo, rat plasma, oral MEM 5.0 mg/kg + HAR 20.0 mg/kg (HAR-L + MEM))?
Its Tmax is 3.13 ± 2.23 h.

And the AUC(0-t) [1, 6]?
Its AUC(0-t) is 392 ± 55.2 ng·h/mL.

What about the AUC(0-t) [1, 7] of the same compound?
Its AUC(0-t) is 472 ± 105 ng·h/mL.

And the AUC(0-t) [1, 8]?
The AUC(0-t) was 603 ± 149 ng·h/mL.

What about the AUC(0-t) [1, 9] of the same compound?
Its AUC(0-t) is 349 ± 46.2 ng·h/mL.

And the AUC(0-inf) [1, 6]?
The AUC(0-inf) was 477 ± 75.1 ng·h/mL.

And the AUC(0-inf) [1, 7]?
The AUC(0-inf) was 547 ± 142 ng·h/mL.

What about the AUC(0-inf) [1, 9] of the same compound?
Its AUC(0-inf) is 367 ± 4.87 ng·h/mL.

And the CL/F [1, 6]?
Its CL/F is 178 mL/min/kg.

And the CL/F [1, 7]?
The CL/F was 162 mL/min/kg.

What about the CL/F [1, 8] of the same compound?
Its CL/F is 118 mL/min/kg.

And the CL/F [1, 9]?
Its CL/F is 230 mL/min/kg.

And the Cmax [1, 6]?
The Cmax was 50.5 ± 7.59 ng/mL.

What about the Cmax [1, 7] of the same compound?
Its Cmax is 74.9 ± 15 ng/mL.

And the Cmax [1, 8]?
The Cmax was 74.3 ± 26.6 ng/mL.

What about the Cmax [1, 9] of the same compound?
Its Cmax is 84.8 ± 25.8 ng/mL.

What about the k el [1, 6] of the same compound?
Its k el is 5.31e-05 s⁻¹.

And the k el [1, 7]?
Its k el is 5.97e-05 s⁻¹.

And the k el [1, 8]?
Its k el is 5.64e-05 s⁻¹.

And the k el [1, 9]?
Its k el is 7.25e-05 s⁻¹.

And the MRT [1, 6]?
The MRT was 7.45 ± 1.51 h.

And the MRT [1, 7]?
The MRT was 6.25 ± 1.25 h.

What about the MRT [1, 8] of the same compound?
Its MRT is 8.5 ± 3.74 h.

And the MRT [1, 9]?
The MRT was 4.04 ± 0.808 h.

And the Tmax [1, 7]?
The Tmax was 1.56 ± 1.11 h.

And the Tmax [1, 8]?
The Tmax was 4 ± 1.85 h.

What about the Tmax [1, 9] of the same compound?
The Tmax was 1.31 ± 0.579 h.

And the “Ka of MEM” value [1, 10]?
Its value is 0.595 ± 0.315 h⁻¹.

What about the “T1/2a of MEM” value [1, 10] of the same compound?
The value was 1.37 ± 0.468 h.

What about the “T1/2d of MEM” value [1, 10] of the same compound?
The value was 2.42 ± 1.06 h.

What about the “Vd of MEM” value [1, 10] of the same compound?
The value was 60.1 ± 19.3 L/kg.

And the “Ka of MEM” value [1, 11]?
The value was 1.08 ± 1.05 h⁻¹.

And the “T1/2a of MEM” value [1, 11]?
The value was 0.945 ± 0.398 h.

What about the “T1/2d of MEM” value [1, 11] of the same compound?
Its value is 1.67 ± 0.560 h.

And the “Vd of MEM” value [1, 11]?
The value was 48.4 ± 16.4 L/kg.

And the “Ka of MEM” value [1, 12]?
The value was 0.481 ± 0.203 h⁻¹.

What about the “T1/2a of MEM” value [1, 12] of the same compound?
The value was 1.61 ± 0.459 ^bb h.

And the “T1/2d of MEM” value [1, 12]?
Its value is 1.61 ± 0.529 h.

And the “Vd of MEM” value [1, 12]?
Its value is 38.3 ± 13.1 L/kg.

What about the “MEM in plasma within 24.0 h after co-administrations” value ([1]; rat plasma, oral MEM 5.0 mg/kg + HAR 20.0, 40.0 or 80.0 mg/kg) of the same compound?
Its value is “a small amount of MEM could still be detected”.

What about the “MEM in plasma after 24 h of administration” value [1, 13] of the same compound?
Its value is “no MEM was detected”.

And the “Ka of MEM” value [1, 13]?
Its value is 1.73 ± 0.848 h⁻¹.

And the “T1/2a of MEM” value [1, 13]?
Its value is 0.482 ± 0.202 h.

And the “T1/2d of MEM” value [1, 13]?
The value was 3.08 ± 2.37 h.

What about the “Vd of MEM” value [1, 13] of the same compound?
The value was 53.8 ± 10.6 L/kg.

And the “T1/2e of MEM” value ([1]; rat, in vivo)?
Its value is 2.69 ± 0.306 h and 3.96 ± 1.44 h and 3.62 ± 1.42 h and 4.27 ± 3.03 h.

And the “T1/2e of MEM” value ([2]; administered orally with 1.22 mg eq./mL MEM)?
Its value is 2.23 h.

And the “T1/2e of MEM” value ([2]; administered orally with 2.00 mg eq./mL MEM)?
The value was 3.92 h.

What about the “inhibition of CYP2D6” value [3] of the same compound?
Its value is “strong inhibitor”.

What about the “inhibition of CYP1A2” value [4] of the same compound?
The value was “weak inhibitor”.

And the “inhibition of CYP3A4” value [5]?
The value was “weak inhibitor”.
